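Interpolation was linear, between the two tested concentrations surrounding the appropriate level; five concentrations were tested over 48 hours in 96-well plates. GI50 is the concentration that inhibits growth by half.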 Activity calls are given as the source filed them. Cut-off read from the data, not from the text of the source: active = GI50 up to about 1.1 µM and inactive = higher.
What was measured:
Experiment in all cases: inhibition of tumour cell growth, NCI panel, 48 h
[1] = system: KM-20L2
[2] = system: DMS-273
[3] = system: 786-0
[4] = system: HT-29
[5] = system: SK-MEL-2
[6] = system: SNB-19
[7] = system: OVCAR-8
[8] = system: HCT-15
[9] = system: CAKI-1
[10] = system: SN12C
[11] = system: UO-31
[12] = system: DMS-114
[13] = system: A498
[14] = system: COLO 205
[15] = system: SF-295
[16] = system: LXFL 529
[17] = system: HOP-18
[18] = system: HCT-116

Compound	GI50 [1]	GI50 [2]	GI50 [3]	GI50 [4]	GI50 [5]	GI50 [6]	GI50 [7]	GI50 [8] [µM]	GI50 [9]	GI50 [10]	GI50 [11]	GI50 [12]	GI50 [13]	GI50 [14]	GI50 [15]	GI50 [16]	GI50 [17]	GI50 [18]
N=C(N)NS(=O)(=O)c1ccc(NCc2c3ccccc3[n+]([O-])c3ccccc23)cc1	30.1 µM (inactive)	9.35 µM (inactive)	19.7 µM (inactive)	41.5 µM (inactive)	40.2 µM (inactive)	18.8 µM (inactive)	28.5 µM (inactive)	18.4	21.3 µM (inactive)	15 µM (inactive)	15.2 µM (inactive)	10.4 µM (inactive)	13.6 µM (inactive)	68.5 µM (inactive)	18.7 µM (inactive)	17.1 µM (inactive)	8.63 µM (inactive)	8.11 µM (inactive)
COc1ccc2c(c1)[n+]([O-])c(-c1ccc([N+](=O)[O-])cc1)c(N)[n+]2[O-]	49.5 µM (inactive)	> 100 µM (inactive)	> 100 µM (inactive)	65.5 µM (inactive)	80.4 µM (inactive)	> 100 µM (inactive)	> 100 µM (inactive)	–	> 100 µM (inactive)	> 100 µM (inactive)	> 100 µM (inactive)	21.4 µM (inactive)	> 100 µM (inactive)	47.4 µM (inactive)	> 100 µM (inactive)	39.5 µM (inactive)	> 100 µM (inactive)	26.6 µM (inactive)
O=C(/C=C/c1cccc([N+](=O)[O-])c1)c1cccnc1	27.7 µM (inactive)	25.3 µM (inactive)	16.5 µM (inactive)	20.2 µM (inactive)	> 100 µM (inactive)	> 53.3 µM (inactive)	34.6 µM (inactive)	43.5	> 46.5 µM (inactive)	26.5 µM (inactive)	> 45.1 µM (inactive)	22.6 µM (inactive)	> 43.6 µM (inactive)	35.6 µM (inactive)	46 µM (inactive)	21 µM (inactive)	2.06 µM (inactive)	16.7 µM (inactive)
O=c1cccccc1NCCCCNc1cccccc1=O	> 100 µM (inactive)	> 100 µM (inactive)	> 100 µM (inactive)	> 100 µM (inactive)	> 100 µM (inactive)	61 µM (inactive)	> 100 µM (inactive)	84.7	83 µM (inactive)	> 100 µM (inactive)	42 µM (inactive)	31.3 µM (inactive)	> 100 µM (inactive)	> 100 µM (inactive)	> 100 µM (inactive)	48.8 µM (inactive)	> 100 µM (inactive)	> 100 µM (inactive)
CC(C)NC(=O)O/N=C1\CCC2[C@@H]3CC=C4C[C@@H](OC(=O)NC(C)C)CC[C@]4(C)C3CC[C@]12C (stereo partly specified)	2.59 µM (inactive)	1.31 µM (inactive)	1.61 µM (inactive)	2.34 µM (inactive)	1.46 µM (inactive)	2.02 µM (inactive)	1.75 µM (inactive)	1.43	1.44 µM (inactive)	1.57 µM (inactive)	1.01 µM (active)	0.664 µM (active)	6.89 µM (inactive)	0.359 µM (active)	1.54 µM (inactive)	0.912 µM (active)	1.84 µM (inactive)	1.43 µM (inactive)
O=C(CCc1nnc2s/c(=C\c3ccccc3[N+](=O)[O-])c(=O)n12)Nc1cc(Cl)c(Cl)cc1Cl	54 µM (inactive)	54.3 µM (inactive)	17.1 µM (inactive)	35.2 µM (inactive)	92.7 µM (inactive)	30.1 µM (inactive)	25.9 µM (inactive)	40.4	–	24.6 µM (inactive)	31.6 µM (inactive)	49.3 µM (inactive)	20.4 µM (inactive)	83.4 µM (inactive)	18.7 µM (inactive)	21.8 µM (inactive)	18.3 µM (inactive)	17.5 µM (inactive)
Nc1c(Cl)ncnc1NCCCCCCCCCCCCNc1ncnc(Cl)c1N	7.11 µM (inactive)	1.74 µM (inactive)	2.86 µM (inactive)	7.03 µM (inactive)	2.35 µM (inactive)	4.57 µM (inactive)	1.9 µM (inactive)	1.88	–	3.13 µM (inactive)	1.05 µM (active)	< 0.01 µM (active)	6.05 µM (inactive)	8.24 µM (inactive)	1.01 µM (active)	0.218 µM (active)	5.48 µM (inactive)	0.0469 µM (active)
CCC1(CN(C)C)CC/C(=C\c2ccc(OC)c(OC)c2)C1=O (stereo unspecified)	51.9 µM (inactive)	> 100 µM (inactive)	> 100 µM (inactive)	58.2 µM (inactive)	> 100 µM (inactive)	> 100 µM (inactive)	> 100 µM (inactive)	> 100	74.5 µM (inactive)	> 100 µM (inactive)	> 100 µM (inactive)	99.8 µM (inactive)	88.7 µM (inactive)	76.6 µM (inactive)	> 100 µM (inactive)	> 92 µM (inactive)	> 100 µM (inactive)	> 74.5 µM (inactive)

Source: ChEMBL document CHEMBL1201862, “PubChem BioAssay data set” (2004)
